TGI data for 18 molecules are collected here from PubChem BioAssay (NCI).

SMILES strings stand for the structures.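 Five concentrations, 48 hours, 96-well plates. TGI: concentration producing complete growth inhibition.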

Among the test systems are HT29 colon; K-562 leukemia; KM12 colon; NCI-H460 lung; OVCAR-4 ovarian; OVCAR-8 ovarian; PC-3 prostate; RXF 393 renal; SNB-75 CNS; U251 CNS.
Assay in all cases: inhibition of tumour cell growth, NCI panel, 48 h

Take `CC(CN(C)C)C(O)(c1ccccc1)c1ccccc1` (stereo not given): the TGI in the assay with HT29 colon, in the assay on K-562 leukemia, with KM12 colon, in the assay with NCI-H460 lung, in the assay on OVCAR-4 ovarian and with OVCAR-8 ovarian was greater than 100 µM each time. Also, the TGI in the assay with PC-3 prostate, in the assay with RXF 393 renal, in the assay on SNB-75 CNS and in the assay on U251 CNS was greater than 100 µM in each case.

For the molecule `Cc1cccc(-c2cc(=O)c3c(C)ccnc3[nH]2)c1`, the TGI with HT29 colon was greater than 100 µM; in the assay on K-562 leukemia, greater than 100 µM; with KM12 colon, 16.8 µM; with NCI-H460 lung it was 16.3 µM; in the assay on OVCAR-4 ovarian, greater than 100 µM; with OVCAR-8 ovarian, greater than 100 µM. Further, the TGI in the assay with PC-3 prostate, in the assay with RXF 393 renal, with SNB-75 CNS and with U251 CNS was greater than 100 µM in each case.

As for `COC(=O)C1CC(C=O)=C(SC)N1` (stereo not given), the TGI in the assay on HT29 colon, with K-562 leukemia, with KM12 colon, in the assay on NCI-H460 lung, with OVCAR-4 ovarian and in the assay on OVCAR-8 ovarian was greater than 50 µM each time. In addition, the TGI in the assay with PC-3 prostate, with RXF 393 renal, in the assay on SNB-75 CNS and with U251 CNS was greater than 50 µM each time.

For `CC(=O)Oc1ccc(-c2c(OC(C)=O)c(OC(C)=O)c(-c3ccc(OC(C)=O)c(OC(C)=O)c3)c(OC(C)=O)c2OC(C)=O)cc1`, the TGI with HT29 colon is 36.1 µM; in the assay on K-562 leukemia, 43.5 µM; in the assay with KM12 colon, 28.1 µM; in the assay on NCI-H460 lung, greater than 100 µM; in the assay with OVCAR-4 ovarian, 31.8 µM; in the assay with OVCAR-8 ovarian, 28.2 µM. Besides, the TGI with PC-3 prostate was determined as 31 µM; in the assay on RXF 393 renal, 36.1 µM; in the assay on SNB-75 CNS, 31.9 µM; in the assay with U251 CNS, 36.5 µM.

On to `O=c1c2cc(Cl)ccc2n2nnc3ccc(NCCNCCO)c1c32`, for which the TGI in the assay with HT29 colon stood at 2.74 µM; in the assay with K-562 leukemia, 10.9 µM; in the assay on KM12 colon, 3.48 µM; in the assay with NCI-H460 lung, 1.58 µM; with OVCAR-4 ovarian it was 2.52 µM; in the assay with OVCAR-8 ovarian it was 2.53 µM. Also, the TGI in the assay on PC-3 prostate worked out at 2.75 µM; with RXF 393 renal, 3.45 µM; in the assay on SNB-75 CNS it was 0.286 µM; with U251 CNS, 1.94 µM.

For the molecule `CCOC(=O)c1c(C)n(CCN2CCN(C)CC2)c2ccc(OC)cc12`, the TGI in the assay with HT29 colon is 71.2 µM; in the assay on K-562 leukemia, 45.8 µM; in the assay with KM12 colon it was greater than 100 µM; in the assay with NCI-H460 lung, greater than 100 µM; with OVCAR-4 ovarian it was greater than 100 µM; in the assay with OVCAR-8 ovarian, greater than 100 µM. The TGI in the assay with PC-3 prostate, with RXF 393 renal, with SNB-75 CNS and in the assay with U251 CNS was greater than 100 µM in each case.

As to `COc1cc(/C=C2\N=C(c3ccccc3)N(c3ccc(C(=O)c4ccccc4)cc3N3C(=O)/C(=C/c4cc(OC)c(OC)c(OC)c4)N=C3c3ccccc3)C2=O)cc(OC)c1OC`, the TGI with HT29 colon was 92 µM; in the assay on K-562 leukemia, 68.7 µM; in the assay on KM12 colon it was 48.9 µM; in the assay with NCI-H460 lung it was 23.8 µM; with OVCAR-4 ovarian, greater than 100 µM; in the assay on OVCAR-8 ovarian, 73.2 µM. The TGI is 46 µM in the assay with PC-3 prostate, 34.9 µM with RXF 393 renal, 35.6 µM with SNB-75 CNS and greater than 100 µM with U251 CNS.

On to `C=C1C(=O)O[C@H]2[C@@H](O)[C@H](C)CCC/C(C)=C/CC[C@@]3(C)O[C@@H]3C[C@@H]12`, for which the TGI in the assay with HT29 colon is 28.7 µM; in the assay with K-562 leukemia, greater than 100 µM; in the assay on KM12 colon, 33.1 µM; in the assay with NCI-H460 lung, 16.8 µM; with OVCAR-4 ovarian it was 19.8 µM; with OVCAR-8 ovarian, greater than 51.2 µM. Further, the TGI is greater than 57.6 µM in the assay with PC-3 prostate, 16.4 µM with RXF 393 renal, 29.6 µM in the assay with SNB-75 CNS and 26.9 µM with U251 CNS.

With `COc1ccc(/C=C(\C#N)c2nc(-c3cc4ccccc4oc3=O)cs2)cc1`, the TGI with HT29 colon was greater than 100 µM; in the assay with K-562 leukemia it was greater than 100 µM; in the assay on KM12 colon, greater than 100 µM; with NCI-H460 lung, 57.1 µM; with OVCAR-4 ovarian, 58.8 µM; in the assay with OVCAR-8 ovarian, 44.4 µM. Also, the TGI with PC-3 prostate was greater than 100 µM; in the assay on RXF 393 renal, 45.4 µM; in the assay with SNB-75 CNS, 59.5 µM; in the assay with U251 CNS, 27.3 µM.

With `NC(Cc1ccccc1)C(=O)O` (stereo not given), the TGI in the assay with HT29 colon, in the assay on K-562 leukemia, in the assay on KM12 colon, in the assay on NCI-H460 lung, in the assay on OVCAR-4 ovarian and in the assay on OVCAR-8 ovarian was greater than 100 µM throughout. Moreover, the TGI with PC-3 prostate, with RXF 393 renal, in the assay with SNB-75 CNS and with U251 CNS was greater than 100 µM each time.

For the molecule `C[C@@H](CC(O)C(O)C(C)(C)O)C1CCC23CC12CCC1[C@@]2(C)CCC(=O)C(C)(C)C2CC(OC2OC(CO)C(O)C(O)C2O)[C@]13C` (stereo not given in full), the TGI in the assay on HT29 colon, with K-562 leukemia, in the assay with KM12 colon, with NCI-H460 lung, with OVCAR-4 ovarian and in the assay on OVCAR-8 ovarian was greater than 10 µM each time. In addition, the TGI in the assay with PC-3 prostate, in the assay on RXF 393 renal, in the assay on SNB-75 CNS and in the assay on U251 CNS was greater than 10 µM each time.

For the molecule `O=C(NC(Cc1c[nH]c2ccccc12)C(=O)O)/C(=C/c1ccccc1)NC(=O)c1ccccc1` (stereo not given), the TGI with HT29 colon, with K-562 leukemia, with KM12 colon, with NCI-H460 lung, with OVCAR-4 ovarian and in the assay on OVCAR-8 ovarian was greater than 100 µM each time. The TGI in the assay on PC-3 prostate, in the assay with RXF 393 renal, in the assay with SNB-75 CNS and in the assay on U251 CNS was greater than 100 µM in each case.

`Clc1cccc(Cl)c1C1ON=C(c2ccccc2)N1C12CC3CC(CC(C3)C1)C2` (stereo not given): the TGI was greater than 100 µM with HT29 colon; 44.7 µM in the assay on K-562 leukemia; 30.8 µM with KM12 colon; greater than 100 µM in the assay on NCI-H460 lung; greater than 100 µM with OVCAR-4 ovarian; greater than 100 µM with OVCAR-8 ovarian. For the same molecule, the TGI in the assay on PC-3 prostate was 29.9 µM; with RXF 393 renal, greater than 100 µM; in the assay on SNB-75 CNS, 18.3 µM; with U251 CNS, greater than 100 µM.

In the case of `CC1=C(C(=O)OC(C)C)C(c2cccc([N+](=O)[O-])c2)C(C(=O)OC(CO[N+](=O)[O-])CO[N+](=O)[O-])=C(C)N1` (stereo not given), the TGI in the assay on HT29 colon was 21 µM; with K-562 leukemia, greater than 100 µM; in the assay on KM12 colon it was 12.9 µM; in the assay with NCI-H460 lung, greater than 36.7 µM; in the assay on OVCAR-4 ovarian, 20.9 µM; with OVCAR-8 ovarian, greater than 100 µM. The TGI in the assay with PC-3 prostate is greater than 32.6 µM; in the assay with RXF 393 renal, 58.1 µM; in the assay with SNB-75 CNS, 43.3 µM; in the assay on U251 CNS, 6.97 µM.

Consider `Cc1ccc(N=Nc2cc(=O)[nH]c(=O)[nH]2)cc1C`, for which the TGI in the assay on HT29 colon was 4.51 µM; with K-562 leukemia, greater than 100 µM; with KM12 colon, 24.5 µM; in the assay with NCI-H460 lung it was 41.6 µM; with OVCAR-4 ovarian, 31.8 µM; in the assay on OVCAR-8 ovarian, 30.9 µM. Also, the TGI in the assay with PC-3 prostate stood at 11.7 µM; in the assay on RXF 393 renal it was 24.9 µM; in the assay with SNB-75 CNS, 15.3 µM; with U251 CNS it was 29.1 µM.

Consider `Cc1nc(-c2ccc(Cl)cc2)cn2c1nc1ccccc12`, for which the TGI in the assay on HT29 colon, with K-562 leukemia, with KM12 colon, in the assay on NCI-H460 lung, with OVCAR-4 ovarian and with OVCAR-8 ovarian was greater than 100 µM in each case. Moreover, the TGI with PC-3 prostate, in the assay with RXF 393 renal, in the assay with SNB-75 CNS and with U251 CNS was greater than 100 µM in each case.

For `NC(=S)NS(=O)(=O)c1ccc(Cl)cc1Cl`, the TGI with HT29 colon, in the assay with K-562 leukemia, in the assay on KM12 colon, in the assay with NCI-H460 lung, in the assay with OVCAR-4 ovarian and in the assay with OVCAR-8 ovarian was greater than 100 µM throughout. Besides, the TGI in the assay on PC-3 prostate, in the assay on RXF 393 renal, in the assay with SNB-75 CNS and in the assay with U251 CNS was greater than 100 µM throughout.

For `CCCS(=O)OC1C(C2COC(C)(C)O2)OC2OC(C)(C)OC21` (stereo not given), the TGI is 17.9 µM with HT29 colon; greater than 100 µM with K-562 leukemia; 28.2 µM in the assay with KM12 colon; greater than 62.1 µM with NCI-H460 lung; 34.7 µM in the assay with OVCAR-4 ovarian; 29.3 µM in the assay with OVCAR-8 ovarian. In addition, the TGI was 24 µM in the assay on PC-3 prostate, 25.5 µM in the assay on RXF 393 renal, greater than 48.8 µM in the assay with SNB-75 CNS and 28.4 µM in the assay with U251 CNS.
